Measurements reported in US20080076666A1, “Formulation” (priority 2005, published 2008).
Values after ≈ are worked out from the molar mass of the structure shown. Like-named read-outs stand apart in the source and are kept apart here.

Experiments:
[1] = Water solubility of UV protection dyes (Table 1); settings: for solubility: water
[2] = Photo stabilisation study of COMPOUND (V) in gelatine microcapsules exposed to daylight (HPLC); assay type: physicochemical
Experimental: The HPLC system was from Waters comprising of two 510 pumps, a 717 plus Autosampler, a System Interface Module, a Lambda-Max 480 detector and Millennium Chromatography Manager software. Chromatography was achieved on a Zorbax ODS 5 μm C18 analytical column of dimension 4.6×250 mm internal diameter maintained at 35° C. Mobile phases were unmodified water (Milli-Q grade) in reservoir A and unmodified acetonitrile in reservoir B. Linear gradient elution was used with 70 to 90% B over the first 10 minutes, then 100% B for 3 minutes and returning to 70% B over 4 minutes. Injection cycle time was 20 minutes with a flow rate of 2 ml/min. The samples were either dissolved in acetonitrile or diethyl ether and 10 μl volume injected on to the column which was maintained at 35° C. Prior to use, mobile phase were degassed under vacuum with sonication and continuously sparged with helium. The naphthoquinones were detected by measurement of UV absorbance at 269 nm.
A batch of gelatine microcapsules containing 300 mg of COMPOUND (V) in 15 ml of Exxsol® D100 was produced.
The capsule slurry was washed repeatedly with water to remove debris and filtered to obtain a wet cake. An aliquot of the wet cake (11.3 g) was made up to 50 ml and dyed brown with Chocolate Brown (500 mg, equivalent to 10 mg/ml solution). Aliquots (200 μl) of microcapsule slurry of brown and undyed capsules were applied to glass microscope slides in duplicate. The slurry from each batch was spread to form a monolayer of microcapsules on each slide. The slides were air dried in a dark at room temperature (≅21° C.) and exposed to daylight on a south-facing windowsill for various time periods. Two slides from each batch were analysed per time point post of exposure. Unexposed slides stored in the dark were used as time zero reference.
The contents of the capsules were extracted by rupturing the capsules, by rolling a glass rod on the slides, and washing both the rod and the slide with diethyl ether. The extracts were made up to 10 ml and assayed by HPLC.

| Compound | WATER SOLUBILITY [1] [mg/mL] | other results |
| --- | --- | --- |
| CC1=NN(c2ccc(S(=O)(=O)[O-])cc2)C(=O)C1N=Nc1ccc(-c2ccc(N=Nc3ccc(OS(=O)(=O)c4ccc(C)cc4)cc3)c(S(=O)(=O)[O-])c2)cc1.[Na+].[Na+] (centres unmarked) [Acid Orange 63] | 50 |  |
| Cc1nn(-c2ccccc2)c([O-])c1N=Nc1cc([N+](=O)[O-])cc(S(=O)(=O)[O-])c1[O-].[Cr+3].[Na+].[OH-] [Acid Orange 74] | 20 |  |
| Cc1cc(N=Nc2ccc(C)c(N=Nc3cc(C)c(N)cc3N)c2)c(N)cc1N [Bismark Brown R] |  | solubility [1]: 70 mg/mL (≈ 180 mM) |
| Nc1ccc(N=Nc2cccc(N=Nc3ccc(N)cc3N)c2)c(N)c1 [Bismark Brown Y] | 50 |  |
| Cc1c(C2(c3cc(Br)c(O)c(Br)c3C)OS(=O)(=O)c3ccccc32)cc(Br)c(O)c1Br [Bromocresol Green] |  | solubility [1]: 6 mg/mL (≈ 8.6 mM) |
| CC(=O)OC1=C(C(C)CCC[Si](C)(C)C)C(=O)c2ccccc2C1=O (centres unmarked) [COMPOUND (V)] |  | amount of COMPOUND (V) in capsules, of the initial amount ([2]; Chocolate Brown dyed impervious gelatine microcapsules, 88 hours exposure to daylight (8 hours daylight over 11 days)): ~80%; amount of COMPOUND (V) in capsules, of the initial amount ([2]; undyed impervious gelatine microcapsules, 6 hours exposure to daylight): 60%; amount of COMPOUND (V) in capsules, of the initial amount ([2]; undyed impervious gelatine microcapsules, 16 hours exposure to daylight): 23%; amount of COMPOUND (V) in capsules, of the initial amount ([2]; undyed impervious gelatine microcapsules, 40 hours exposure to daylight (8 hours daylight over 5 days)): 6%; period for which COMPOUND (V) was stabilised on exposure to daylight ([2]; within impervious gelatine microcapsules (Chocolate Brown dyed)): in excess of eleven-days |
| O=S1(=O)OC(c2ccc(O)c(Cl)c2)(c2ccc(O)c(Cl)c2)c2ccccc21 [Chlorophenol Red] | 60 |  |
| Nc1c(/N=N/c2ccc(-c3ccc(/N=N/c4cc(S(=O)(=O)O)c5ccccc5c4N)cc3)cc2)cc(S(=O)(=O)O)c2ccccc12 [Congo Red] |  | solubility [1]: 40 mg/mL (≈ 61.3 mM) |
| O=S(=O)([O-])c1ccc2c(N=Nc3ccccc3)c(O)ccc2c1.[Na+] [Crocein Orange G] | 40 |  |
| CC(=O)Nc1ccc2nc3c4ccccc4c(=N)cc-3oc2c1.Cl [Darrow Red] | 1 |  |
| CCN(CC)c1ccc(N=Nc2ccc(S(=O)(=O)[O-])cc2)cc1.[K+] [Ethyl Orange] | 100 |  |
| CCN(CC)c1ccc(N=Nc2ccccc2C(=O)O)cc1 [Ethyl Red] | 3 |  |
| CN(C)c1ccc(/N=N/c2ccccc2C(=O)O)cc1 [Methyl Red] |  | solubility [1]: 2 mg/mL (≈ 7.43 mM) |
| Nc1cc(N)c(N=Nc2cccc3c(S(=O)(=O)O)cccc23)cc1N=Nc1cc([N+](=O)[O-])ccc1O.[Na] [Mordant Brown 1] | 60 |  |
| Cc1cc(N=Nc2cc([N+](=O)[O-])cc([N+](=O)[O-])c2O)c(N)cc1N [Mordant Brown 4] |  | WATER SOLUBILITY ([1]; hot water (remark)): 60 mg/mL |
| Nc1cc(N)c(S(=O)(=O)[O-])cc1N=Nc1cc([N+](=O)[O-])ccc1O.[Na+] [Mordant Brown 33] | 20 |  |
| Nc1cc(N)c(N=Nc2cc([N+](=O)[O-])cc([N+](=O)[O-])c2O)cc1Cl [Mordant Brown 48] | 40 |  |
| Cc1cc(O)ccc1C1(c2ccc(O)cc2C)OS(=O)(=O)c2ccccc21 [m-Cresol Purple] | 2 |  |
| Acid Orange 51 | 30 |  |
